Reference: ChEMBL document CHEMBL1126345, “Synthesis of biological evaluation of 4-deshydroxy-4-methyl etoposide and teniposide analogs” (Bioorg Med Chem Lett, 1992)
Values after ≈ are worked out from the molar mass of the structure shown. Active and inactive are the calls of the source. The calls are words filed in the database; no cut-off is given here.

Tests used:
[1] = target: DNA topoisomerase II (Homo sapiens) (UniProt P11388+Q02880); assay: Double strand DNA breakage reflecting stabilization of DNA topoisomerase II intermediate by the compound expressed in terms of ng of DNA/unit of enzyme/mM of drug
P388 [2] = assay: In vivo antitumor activity against Murine P388 murine leukemia cell line up to a conc of 100 mg/kg; IA - Totally inactive; format: functional, organism-based; parameters: dose 100 mg/kg; conditions: Mus musculus
[3] = Resistance ratio was determined as the ratio of resistance to cytotoxicity against human colon tumor (HCT116) to that of (HCT/VP35) cells grown in culture; format: functional
HCT cell line = assay: In vitro inhibition of compound against HCT cell lines was determined after 72 hr of administration of the dose; format: functional, cell-based; conditions: Homo sapiens
P388 [4] = assay: In vivo antitumor activity against Murine P388 murine leukemia cell line up to a conc of 100 mg/kg; A - Active; format: functional, organism-based; parameters: dose 100 mg/kg; conditions: Mus musculus
HCT-116 = assay: In vitro inhibition of compound against HCT/VP35 cell lines was determined after 72 hr of administration of the dose; format: functional, cell-based; conditions: Homo sapiens, HCT-116, 72 h

DSB [1]	Compound	Activity (P388 [2])	further results
17	C=Cc1c(OC)cc([C@@H]2c3cc4c(cc3[C@@H](O[C@@H]3O[C@@H]5CO[C@@H](C)O[C@H]5[C@H](O)[C@H]3O)[C@H]3COC(=O)[C@H]23)OCO4)cc1OC	inactive	–
305	COc1cc([C@@H]2c3cc4c(cc3[C@@H](O[C@@H]3O[C@@H]5CO[C@@H](C)O[C@H]5[C@H](O)[C@H]3O)[C@H]3COC(=O)[C@H]23)OCO4)cc(OC)c1O	–	–
17	C=CCc1c(OC)cc([C@@H]2c3cc4c(cc3[C@@H](O[C@@H]3O[C@@H]5CO[C@@H](C)O[C@H]5[C@H](O)[C@H]3O)[C@H]3COC(=O)[C@H]23)OCO4)cc1OC	inactive	–
42	C=CCc1c(OC)cc([C@@H]2c3cc4c(cc3[C@@H](O[C@@H]3O[C@@H]5CO[C@@H](c6cccs6)O[C@H]5[C@H](O)[C@H]3O)[C@H]3COC(=O)[C@H]23)OCO4)cc1OC	–	–
27	COc1cc(OC)cc([C@@H]2c3cc4c(cc3[C@@H](O[C@@H]3O[C@@H]5CO[C@@H](C)O[C@H]5[C@H](O)[C@H]3O)[C@H]3COC(=O)[C@H]23)OCO4)c1	–	Resistance ratio [3]: 0.5
346	COc1cc([C@@H]2c3cc4c(cc3[C@@H](O[C@@H]3O[C@@H]5CO[C@@H](c6cccs6)O[C@H]5[C@H](O)[C@H]3O)[C@H]3COC(=O)[C@H]23)OCO4)cc(OC)c1O	–	–
26	COc1cc([C@@H]2c3cc4c(cc3[C@@H](O[C@@H]3O[C@@H]5CO[C@@H](C)O[C@H]5[C@H](O)[C@H]3O)[C@H]3COC(=O)[C@H]23)OCO4)cc(OC)c1C	–	IC50 (HCT cell line): 5.7 µg/mL (≈ 9.72 µM); Activity (P388 [4]): Active; IC50 (HCT-116): 5.7 µg/mL (≈ 9.72 µM)
49	COc1cc([C@@H]2c3cc4c(cc3[C@@H](O[C@@H]3O[C@@H]5CO[C@@H](c6cccs6)O[C@H]5[C@H](O)[C@H]3O)[C@H]3COC(=O)[C@H]23)OCO4)cc(OC)c1C	inactive	–
